Measured values reported in patent US10988505B2.

Tests used:
[1] = target: recombinant human matriptase (Homo sapiens (Human), UniProt Q9Y5Y6); experiment: Matriptase inhibition, Ki determination; format: biochemical; conditions: purified recombinant human matriptase, Boc-Gln-Ala-Arg-AMC substrate, pH 7.4
X31 H3N2 influenza virus = experiment: Influenza virus replication X31 in Calu-3 cells (viral plaque assay); format: cell-based; conditions: Calu-3 human bronchial epithelial cells, 48 h, read-out: calu3_x31_H3N2 EC50 (avg)
cartilage damage = experiment: Osteoarthritis (OA) model, DMM surgery; format: in vivo, C57BL/6J mice; conditions: DMM mice, 5 microlitre intraarticular injections of 10 mg/ml in saline on days 7 and 28, scored day 56
Procedure: The ability of the tested compound to protects against in vivo aggrecan loss in an osteoarthritis (OA) model was evaluated as described by Litherland G J. et al. Arthritis Rheumatol 2014; 66:2175-87.
OA was induced in C57BL/6J mice following destabilization of the medial meniscus (DMM) surgery. Mice received 5 microlitre intraarticular injections of either saline or Compound 1 (10 mg/ml in saline) on days 7 and 28 post surgery. At day 56 post-surgery, mice were killed, knee joints isolated and fixed overnight in 7% formaldehyde in PBS. Joints were decalcified in EDTA in PBS for 10 days and then wax embedded. Consecutive sections (6 μm) were stained with safranin 0 with hematoxylin counterstaining and then cartilage damage graded (by two blinded, independent observers) according to a published grading system [Litherland, 2014]: 0 (normal) to 6 (vertical clefts/erosion to the calcified cartilage extending to […] of the articular surface). Bars show the mean+/−SD of the highestscores in the medial tibial and femoral condyles for each joint. […] The results are depicted in FIG. 1.
**P<0.01 for the control and ***P<0.001 for Compound 1, by Kruskal-Wallis test with Dunn's multiple comparison test.

Chain of recombinant human matriptase (Q9Y5Y6 615-855, other chains not shown): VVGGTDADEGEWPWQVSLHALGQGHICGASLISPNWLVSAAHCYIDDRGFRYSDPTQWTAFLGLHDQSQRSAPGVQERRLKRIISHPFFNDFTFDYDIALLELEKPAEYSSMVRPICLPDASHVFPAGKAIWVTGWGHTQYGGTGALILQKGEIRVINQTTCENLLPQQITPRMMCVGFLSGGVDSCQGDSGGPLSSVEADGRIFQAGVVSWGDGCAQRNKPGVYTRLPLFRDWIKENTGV

Row | SMILES | Ki [1] [nM] | EC50 (X31 H3N2 influenza virus) [nM] | cartilage damage score (cartilage damage)
1 | C[C@H](NC(=O)[C@@H](N)CCC(N)=O)C(=O)N[C@@H](CCCNC(=N)N)C(=O)c1nc2ccccc2s1 [Comparative #2, reference compound] | 0.0877 | 5690 | –
2 | CC(=O)N[C@@H](CCC(N)=O)C(=O)N[C@@H](Cc1ccccc1)C(=O)N[C@@H](CCCNC(=N)N)C(=O)c1nc2ccccc2s1 [Example 3] | – | 34 | –
3 | N=C(N)NCCCCC(=O)N[C@@H](CCC(N)=O)C(=O)N[C@@H](Cc1ccccc1)C(=O)N[C@@H](CCCNC(=N)N)C(=O)c1nc2ccccc2s1 [Example 1] | 0.134 | 20.9 | decreased the cartilage damage score
4 | C[C@H](NC(=O)[C@H](CCC(N)=O)NC(=O)[C@@H](N)CCCNC(=N)N)C(=O)N[C@@H](CCCNC(=N)N)C(=O)c1nc2ccccc2s1 [Comparative #1, reference compound] | – | 7700 | –
